Patent publication US5658880A, “Sialic acid/fucose based medicaments” (Glycomed Incorporated, priority 1994, dated 1997)

Columns and labels:
[1] = system: E-selectin; experiment: ELISA: inhibition of E-selectin-IgG chimera binding to 2,3 sLe^x glycolipid; design: species or system human; settings: for IC50: inhibition of binding to 2,3 sLex glycolipid
Excerpt: (§1) An ELISA assay is preferably used that employs recombinant fusion proteins composed of extracellular portions of the human selectins joined to human immunoglobulin heavy chain CH3, CH2, and hinge regions. See, for example, Walz et al., Science (1990) 250:1132; Aruffo et al., Cell (1991) 67:35; Aruffo et al., Proc. Natl. Acad. Sci. USA. (1992) 89:2292. The assay is well known in the art, and generally consists of the following three steps:
(§2) I. 2,3 sLe^x glycolipid (25 picomole/well) was transferred into microtiter wells as solutions and then evaporated off. Excess, which remained unattached, was washed off with water. The wells were then blocked with 5% BSA at room temperature for an hour and then washed with PBS containing 1 mM calcium.
(§3) II. Preparation of "multivalent" receptor of the Selectin-lgG chimera was carried out by combining the respective chimera (1 μg/mL) with biotin labelled goat F(ab')2 anti-human IgG (Fc specific) and streptavidin-alkaline phosphatase diluted 1:1000 in 1% BSA-PBS (1 mM calcium) and incubating at 37° C. for 15 min. This allowed the soluble multivalent receptor complex to form. III. Potential inhibitors such as the compounds of formula I or II were allowed to react with the soluble receptor at 37° C. for 45 min. This test assumes that optimal binding, between the soluble phase receptor complex and the inhibitor (non natural ligand), would have occurred within this time frame. This solution was then placed in the microtiter wells that were prepared in step I. The plate was incubated at 37° C. for 45 minutes to allow the soluble receptor to bind to its natural ligand. In the presence of a strong inhibitor only a few receptors should be free to bind to the microtiter plate coated with the natural ligand.
(§4) The positive control is the signal produced by the soluble receptor when it is allowed to react with 2,3 sLe^x glycolipid in the microtiter wells in the absence of any inhibitor. This positive control was considered 100% binding. The signal produced by the receptor that had been previously treated with an inhibitor (recorded as O.D.), was divided by the signal produced by the positive control and multiplied by 100 to calculate the % receptor bound to the well in the presence of the inhibitor. The reciprocal of this number is the % inhibition.
as §1, with “was employed” for “is preferably used”, “uses” for “employs”, “USA” for “USA.”
(§5) II. Preparation of "multivalent" receptor of the Selectin-IgG chimera was carried out by combining the respective chimera 1 μg/ml) with biotin labelled goat F(ab')2 anti-human IgG (Fc specific) and streptavidin-alkaline phosphatase diluted 1:1000 in 1% BSA-PBS (1 mM calcium) and incubating at 37° C. for 15 min. This allowed the soluble multivalent receptor complex to form.
(§6) III. Potential inhibitors such as compounds of formula I or II were allowed to react with the soluble receptor at 37° C. for 45 min. This test assumes that optimal binding, between the soluble phase receptor complex and the inhibitor (non natural ligand), would have occurred within this time frame. This solution was then placed in the microtiter wells that were prepared in step I. The plate was incubated at 37° C. for 45 minutes to allow the soluble receptor to bind to its natural ligand. In the presence of a strong inhibitor only a few receptors should be free to bind to the microtiter plate coated with the natural ligand.
(§7) The positive control is the signal produced by the soluble receptor when it is allowed to react with 2,3 sLe^x glycolipid in the microtiter wells in the absence of any inhibitor. This was considered 100% binding. […]

[2] = system: L-selectin; experiment: ELISA: inhibition of L-selectin-IgG chimera binding to 2,3 sLe^x glycolipid; design: species or system human; settings: for inhibition of L-selectin binding to 2,3 sLe^x glycolipid: FIG. 5 and FIG. 6, result in words; for IC50: inhibition of binding to 2,3 sLex glycolipid
Excerpt: as §1, §2, §3, §4
as §1, with “was employed” for “is preferably used”, “uses” for “employs”, “USA” for “USA.”
as §5, §6, §7

[3] = system: P-selectin; experiment: ELISA: inhibition of P-selectin-IgG chimera binding to 2,3 sLe^x glycolipid; design: species or system human; settings: inhibition of binding to 2,3 sLex glycolipid
Excerpt: as §1, §2, §3, §4
as §1, with “was employed” for “is preferably used”, “uses” for “employs”, “USA” for “USA.”
as §5, §6, §7

[4] = system: P-selectin; experiment: Flow cytometric assay: inhibition of P-selectin-IgG binding to HL-60 cells; assay type: cell-based, human; design: unit of the concentration uncertain
Description: The interaction of P-selectin and its cellular ligand was studied using a flow cytometric assay (Erbe, D. V. et al., J. Cell Biol. (1993) 120:1227). HL60 cells (maintained in high glucose DME plus 10% Hyclone FBS) were used in this assay. Before staining with P-selectin-IgG the cells were preincubated in Dulbecco's PBS/1% BSA/0.1% sodium azide/1% normal rabbit serum (staining medium) for 30-60 mins on ice. After this initial incubation, 1 μg of P-selectin-IgG was added to 100 μl aliquots of 10^6 cells and incubated for 30-60 mins on ice. The cells were when washed with staining medium and resuspended in 100 μl of staining medium to which was added 2 μl of a phycoerythrin-conjugated F(ab')^2 goat anti-human IgG (Fc specific). The cells were incubated for 15-30 mins on ice, washed twice with staining medium, and resuspended in 0.5 ml of staining medium before flow cytometric analysis on a FACScan (Becton Dickinson & Co., Mountain View, Calif.). To determine that the staining was an interaction of P-selectin with its ligand, the staining was also done in the presence of 10 mM EGTA. To determine the protease sensitivity and the requirement for sialic acid of this interaction, HL-60 cells in D-PBS and 1% BSA were incubated with either trypsin or Arthrobacter or Clostridium sialidases at 37° C. before resuspending in staining medium. To examine the ability of various carbohydrates to inhibit staining, 50 μg/ml fucoidin (Sigma Immunochemicals, St. Louis, Mo.), 50 μg/ml dextran sulfate (Pharmacia Fine Chemicals, Piscataway, N.J.), 10 mg/ml mannose-1-phosphate (Sigma Immunochemicals), or 10 mg/ml mannose-6-phosphate (Sigma Immunochemicals) was added to cells immediately before the addition of the P-selectin chimera. Each carbohydrate was then present until the cells were washed before the addition of the second stage antibody. A potential complication of this FACS assay arose from the use of selectin-IgG chimeras to stain cells which bear human IgG Fc receptors (FcγR; Fanger, M. W., et al., Immunol. Today (1989) 10:92). Adding rabbit IgG (in the form of normal rabbit serum) to the assay medium blocked this binding in most cases.

| Compound | IC50 [1] [mM] | IC50 [2] [mM] | IC50 [3] [mM] | inhibition of E-selectin binding to 2,3 sLe^x glycolipid ([1]; FIG. 4, result in words) | inhibition of L-selectin binding to 2,3 sLe^x glycolipid [2] | Inhibition (%) of P-selectin-IgG binding to HL-60 cells ([4]; 10 (unit uncertain)) [%] | Inhibition (%) of P-selectin-IgG binding to HL-60 cells ([4]; 100 (unit uncertain)) [%] | Inhibition (%) of P-selectin-IgG binding to HL-60 cells ([4]; 200 (unit uncertain)) [%] |
| --- | --- | --- | --- | --- | --- | --- | --- | --- |
| CC(=O)N[C@H]1[C@H]([C@H](O)[C@H](O)CO)OC(OCCCCCCOC2O[C@@H](C)[C@@H](O)[C@@H](O)[C@@H]2O)(C(=O)O)C[C@@H]1O (stereo partly drawn) [Compound 14, O-Hexamethylene linked α,β-NeuNAc and α,β-L-Fucopyranose] | – | – | – | inhibit E-selectin binding to 2,3 sLe^x glycolipid | inhibit L-selectin binding in a concentration dependent manner | – | – | – |
| CC(=O)N[C@H]1[C@H]([C@H](O)[C@H](O)CO)OC(OCCCCCCOC2O[C@@H](C)[C@@H](O)[C@@H](O)[C@@H]2O)(C(=O)O)C[C@@H]1O (stereo partly drawn) [Compound 15, O-Hexamethylene linked α,β-NeuNAc and α,β-L-Fucopyranose] | – | – | – | – | blocks L-selectin binding at concentrations lower than 7 and 14 | – | – | – |
| CC(=O)NC1C(O)CC(OC2C(O)C(CO)OC(OCCOC3OC(C)C(O)C(O)C3O)C2O)(C(=O)O)OC1C(O)C(O)CO [Compound 28, [O-(α-L-fucopyranosyl)-ethyl]3-O-(α-Neu5Ac)-β-D-galactopyranoside] | > 4 | – | – | – | – | – | – | – |
| CCCOCC(CO[C@@H]1O[C@H](CO)[C@H](O)[C@H](OC(C)C(=O)O)[C@H]1O)O[C@@H]1O[C@@H](C)[C@@H](O)[C@@H](O)[C@@H]1O (stereo partly drawn) [Compound 32, 1-O-(3-O-α-carboxyethyl-β-D-galactopyranosyl)-2-O-(α-L-fucopyranosyl)-3-O-(n-propyl)-propane] | 2 | ≤ 4 | – | – | – | – | – | – |
| COc1ccc(-c2c(C(=O)O)oc3cc(OCC[C@@H]4O[C@@H](C)[C@@H](O)[C@@H](O)[C@@H]4O)cc(O)c3c2=O)cc1 [Compound 54, 2-Carboxy-5-Hydroxy-7-(1-Deoxy-1-α-Fucosyl-Ethyleneoxy)-4-Methoxy Isoflavone] | < 0.5 | > 4 | < 0.5 | – | – | – | – | – |
| C[C@@H]1O[C@@H](CCOc2ccc3cc(OCC[C@@H]4O[C@@H](C)[C@@H](O)[C@@H](O)[C@@H]4O)c(C(=O)O)cc3c2)[C@@H](O)[C@H](O)[C@@H]1O [Compound 57, 3,7-Di-(1-Deoxy-1-α-Fucosyl-Ethyleneoxy)-2-Naphthoic Acid] | > 4 | ~2 | < 0.5 | – | – | – | – | – |
| C[C@@H]1O[C@@H](CCOc2cc3c(OCC[C@@H]4O[C@@H](C)[C@@H](O)[C@@H](O)[C@@H]4O)cccc3cc2C(=O)O)[C@@H](O)[C@H](O)[C@@H]1O [Compound 58, 3,5-Di-(1-Deoxy-1-α-Fucosyl-Ethyleneoxy)-2-Naphthoic Acid] | > 4 | ~4 | 2 | – | – | – | – | – |
| COC(=O)C(C)c1ccc2cc(OCC[C@@H]3O[C@@H](C)[C@@H](OC(C)=O)[C@@H](OC(C)=O)[C@@H]3OC(C)=O)ccc2c1 (stereo partly drawn) [Compound 60] | > 4 | 4 | > 2 | – | – | – | – | – |
| CC(C(=O)OCC1CO1)c1ccc2cc(OCC(O)CO)ccc2c1 (stereo not drawn) [Compound 64] | > 4 | > 4 | > 4 | – | – | – | – | – |
| C[C@@H]1O[C@@H](OCCCCCCOS(=O)(=O)O)[C@@H](O)[C@H](O)[C@@H]1O [Compound 77, 6-O-sulfo-hexanyl-α-L-fucopyranoside] | 2 to 3 | 2 to 3 | ~0.5 | – | – | 50 | 50 | 60 |

Continued, in another order:

| IC50 [1] [mM] | IC50 [2] [mM] | IC50 [3] [mM] | Compound | inhibition of E-selectin binding to 2,3 sLe^x glycolipid ([1]; FIG. 4, result in words) | inhibition of L-selectin binding to 2,3 sLe^x glycolipid [2] | Inhibition (%) of P-selectin-IgG binding to HL-60 cells ([4]; 10 (unit uncertain)) [%] | Inhibition (%) of P-selectin-IgG binding to HL-60 cells ([4]; 100 (unit uncertain)) [%] | Inhibition (%) of P-selectin-IgG binding to HL-60 cells ([4]; 200 (unit uncertain)) [%] |
| --- | --- | --- | --- | --- | --- | --- | --- | --- |
| < 0.5 | < 1 | < 0.5 | C[C@@H]1O[C@@H](CCOc2ccc3cc(C(=O)O)ccc3c2)[C@@H](O)[C@H](O)[C@@H]1O [Compound 51, 1-Deoxy-1-α-(2-Carboxy-Naphthyl-6-Oxyethyl)-L-Fucose] | – | – | – | – | – |
| < 0.5 | > 2 | < 0.5 | C[C@@H]1O[C@@H](CCOc2ccc(C(=O)O)cc2)[C@@H](O)[C@H](O)[C@@H]1O [Compound 67, 1-Deoxy-1-α-(p-Carboxy-Phenoxyethyl)-L-Fucose] | – | – | – | – | – |
| ~4 | > 4 | < 0.5 | C[C@@H]1O[C@@H](CCOc2ccccc2C(=O)O)[C@@H](O)[C@H](O)[C@@H]1O [Compound 68, 1-Deoxy-1-α-(o-Carboxy-Phenoxyethyl)-L-Fucose] | – | – | – | – | – |
| > 4 | > 4 | > 4 | C[C@@H]1O[C@@H](CCOc2cccc(C(=O)O)c2)[C@@H](O)[C@H](O)[C@@H]1O [Compound 69, 1-Deoxy-1-α-(m-Carboxy-Phenoxyethyl)-L-Fucose] | – | – | – | – | – |
| > 4 | > 4 | > 4 | C[C@@H]1O[C@@H](CCc2cccc(C(=O)NC(Cc3ccccc3)C(=O)O)c2)[C@@H](O)[C@H](O)[C@@H]1O (stereo partly drawn) [Compound 74, 1-Deoxy-1-α-(m-Carboxy-Phenylethyl)-L-Fucose-Phenylalanine Amide] | – | – | – | – | – |
| > 4 | > 4 | 4 | C[C@@H]1O[C@@H](CCc2ccc(C(=O)NC(Cc3ccccc3)C(=O)O)cc2)[C@@H](O)[C@H](O)[C@@H]1O (stereo partly drawn) [Compound 75, 1-Deoxy-1-α-(p-Carboxy-Phenylethyl)-L-Fucose-Phenylalanine Amide] | – | – | – | – | – |
| > 4 | > 4 | > 4 | C[C@@H]1O[C@@H](CCc2ccccc2C(=O)NC(Cc2ccccc2)C(=O)O)[C@@H](O)[C@H](O)[C@@H]1O (stereo partly drawn) [Compound 76, 1-Deoxy-1-α-(o-Carboxy-Phenylethyl)-L-Fucose-Phenylalanine Amide] | – | – | – | – | – |
